Patent publication US9757378B2, “Methods to modulate acute myeloid leukemia stem/progenitor cell expansion and/or differentiation” (UNIVERSITE DE MONTREAL, priority 2013, dated 2017)

Columns and labels:
primary human AML cells [1] = experiment: Secondary screen: dose response, five serial dilutions (CD34/CD15 flow cytometry); format: cell-based; parameters: key to 2ndary screen criteria fulfilled: 0 = no; 1 = yes; details: for % increase CD34+CD15− (%) 2ndary screen / % increase CD34+CD15− (cell counts) 2ndary screen: at optimal concentration, compared to DMSO; for 2ndary screen criteria fulfilled: ≧50% increase CD34+CD15− (%) and cell counts and ≧50% gated cells in at least one dose
Procedure: In the primary screen cells were plated in transparent 384-wellplates (Greiner, 781182) at a density of 5,000 cells in 50 μl final volume per well. Compounds were tested at 2 μM (commercial libraries) or 1 μg/ml (Medicinal Chemistry Facility, IRIC). […] For validation experiments AML cells were grown in 384-well plates with 3-8 replicates per condition.
Flow cytometry was performed on an LSR™ II cytometer equipped with an HTS-device (BD Bioscience, Primary and Secondary screens and in vitro validation experiments) or on a BD Canto™ II cytometer (BD Bioscience, Xenotransplantation and CellTrace Violet™ experiments). Cells were stained for 30 minutes at 4° C. protected from light if not otherwise indicated (CellTrace Violet™ staining). The following flow cytometry-antibodies were used: CD45 Pacific Blue (BioLegend 304029), CD33 PE (BD Bioscience 555450), CD34 APC (BD Bioscience 555824), CD3 FITC (BD Bioscience 555332), CD19 PE-Cy7 (BD Bioscience 557835), CD15 PE (BD Bioscience 555401), and anti-mouse CD45.1 APC-efluor 730 (eBioscience 47-0453-82). CD34 intensities in flow cytometry plots were set at high levels on day 0 to allow tracing of non-predictable decreases of intensities during 7 days in culture.

primary human AML cells [2] = experiment: Primary screen: differentiation of primary human AML cells in vitro (CD34/CD15, HTS flow cytometry); details: for % increase CD34+ (%) / % increase CD34+ (cell counts) / % increase CD34+CD15− (cell counts): compared to DMSO; for % increase CD34+CD15− (%): compared to DMSO ((compound − DMSO)/DMSO*100); for percent gated cells (viability): 2 μM (commercial libraries) or 1 μg/ml (IRIC)
[3] = test system: AhR target genes CYP1A1, CYP1B1 and AHRR; experiment: AhR target gene expression by q-RT-PCR in AML cells; format: cell-based, human; details: SR1 500 nM; TCDD 0.1, 1, 10 nM; n=13 samples
From the text: RNA was isolated from primary AML samples using Trizol® reagent according to the manufacturer's instructions (Invitrogen/Life Technologies) and reverse transcribed into cDNA using MMLV reverse transcriptase and random primers. 2× Fast Master Mix® containing primers described below and probes from the Universal Probe Library® (Roche Diagnostics) were used for q-RT-PCR reactions which were amplified in 2-3 technical replicates on an ABI 7900HT Fast Real-Time® PCR System (Applied Biosystems/Life Technologies). Analysis was done with SDS 2.2.2 software (Applied Biosystems/Life Technologies) using the comparative delta CT method with GAPDH as reference gene. The following primers and probes were used: GAPDH: 5′-[…]-3′ (forward, SEQ ID NO:7), 5′-[…]-3′ (reverse, SEQ ID NO:8), probe 60, CYP1A1: 5′-[…]-3′ (forward, SEQ ID NO:9), 5′-[…]-3′ (reverse, SEQ ID NO:10), probe 59, CYP1B1: 5′-[…]-3′ (forward, SEQ ID NO:11), 5′-[…]-3′ (reverse, SEQ ID NO:12), probe 20, AHRR: 5′-[…]-3′ (forward, SEQ ID NO:13), 5′-[…]-3′ (reverse, SEQ ID NO:14), probe 72, AHR: 5′-[…]-3′ (forward, SEQ ID NO:15), 5′-[…]-3′ (reverse, SEQ ID NO:16), probe 33.

[4] = test system: primary human AML specimens; experiment: Validation: 7-day serum-free culture of diverse AML specimens (CD34+CD15− cells); format: cell-based; details: 7-day culture
Procedure: The following flow cytometry-antibodies were used: […] Statistical analyses of all in vitro experiments were done using Graphpad Prism v 6.01. […] Normalized CD34^+CD15^- percentages (td7/t0) were analyzed by Wilcoxon matched pairs signed rank test. Bars and error bars represent means and standard deviations (SD), or standard errors of the mean (SEM), as specified. Extreme limiting dilution analysis software (Hu, […]: extreme limiting dilution analysis for comparing depleted and enriched populations in stem cell and other assays. Journal of immunological methods 347, 70-78 (2009); http://bioinf.wehi.edu.au/software/elda/) was used to estimate LSC frequencies with 95% confidence intervals. In cases where all mice were positive or negative, one-sided confidence intervals were calculated. Differences in LSC frequencies between culture conditions were analyzed by Chi-square test.

Structure (SMILES)	% increase CD34+CD15− (%) 2ndary screen (primary human AML cells [1])	% increase CD34+CD15− (cell counts) 2ndary screen (primary human AML cells [1])	2ndary screen criteria fulfilled (primary human AML cells [1])	% increase CD34+ (%) (primary human AML cells [2])	% increase CD34+ (cell counts) (primary human AML cells [2])	% increase CD34+CD15− (cell counts) (primary human AML cells [2])	% increase CD34+CD15− (%) (primary human AML cells [2])	upregulation of AhR target genes AHRR and CYP1A1 upon 24 h in vitro culture [3]	CD34+CD15− cell counts in secondary screenings (ranking) (primary human AML cells [1]; in words)	impact on CD34+CD15− cell numbers ([4]; vs DMSO, P<0.0001 paired t-test)	median CD34+CD15− percentage relative to uncultured cells ([4]; SR1 0.75-1 μM, C05 2 μM, DMSO 19% / 22%)	percent gated cells (viability) (primary human AML cells [2])
O=c1cc(-c2ccccc2)oc2cc(O)cc(O)c12 [UM0118950, Chrysin]	194.69%	172.16%	1	47.05%	48.57%	108.30%	105.68%					
COc1ccc(-c2cc(=O)c3c(O)cc(O)cc3o2)cc1O [UM0119400, Diosmetine]			0	31.48%	−19.72%	20.75%	97.56%					
Clc1cc2c(cc1Cl)Oc1cc(Cl)c(Cl)cc1O2 [TCDD, 2,3,7,8-Tetrachlorodibenzodioxin]								marginally further induced				
CNC(=O)c1cc2c(cn1)[nH]c1ccccc12 [UM0119840, N-Methyl-beta-carboline-3-carboxamide]	172.95%	252.10%	1	31.60%	37.57%	85.11%	76.94%		highest	significant impact	56%	86.20%
COc1cccc2oc(-c3ccccc3)cc(=O)c12 [UM0113898, 5-Methoxyflavone]	105.80%	119.91%	1	36.28%	20.92%	61.47%	82.42%					
CO[C@H]1C[C@@H]2CC[C@@H](C)[C@@](O)(O2)C(=O)C(=O)N2CCCC[C@H]2C(=O)O[C@H]([C@H](C)C[C@@H]2CC[C@@H](O)[C@H](OC)C2)CC(=O)[C@H](C)/C=C(\C)[C@@H](O)[C@@H](OC)C(=O)[C@H](C)C[C@H](C)/C=C/C=C/C=C/1C [UM0119219, Rapamycin]			0	27.40%	−57.86%	−44.01%	68.93%					72.30%
COc1ccc(-c2oc3cc(O)cc(O)c3c(=O)c2O)cc1 [UM0119298, Kaempferide]	105.80%	114.93%	1	42.31%	25.55%	75.15%	98.71%					82.40%
COc1ccc(-c2cc(=O)c3c(OC(C)=O)cc(OC(C)=O)cc3o2)cc1 [UM0120987, Acacetin diacetate]				27.58%	22.16%	53.47%	59.88%					81.60%
C[C@@H]1Cc2c(Cl)cc(C(=O)N[C@@H](Cc3ccccc3)C(=O)O)c(O)c2C(=O)O1 [UM0119328, Ochratoxin A]			0	14.82%	1.28%	34.37%	52.56%					82.10%
CCOC(=O)c1oc2c(OC)c(O)cc(O)c2c(=O)c1-c1cc(OC)c(OC)c(OC)c1 [UM0121233, 2-Ethoxycarbonyl-5,7-dihydroxy-8,3′,4′,5′-tetramethoxyisoflavone]				15.01%	18.21%	50.24%	45.77%					86.30%
CC(=O)Oc1ccc(-c2cc(=O)c3c(OC(C)=O)cc(OC(C)=O)cc3o2)cc1 [UM0121171, Apigenin triacetate]				48.36%	17.48%	31.61%	66.25%					80.10%
